Assay [1] in a line: Cytotoxicity against human NALM6 cells after 72 hrs by Cell-Titer Glo assay. The class given is functional, cell-based. The following applies: NALM-6, 72 h.
In the next assay the test system is BJ. The assay can be described thus: Cytotoxicity against human BJ cells after 72 hrs by Cell-Titer Glo assay. It counts as cell-based.
Another assay has as its system Jurkat. The experiment in a line: Cytotoxicity against human Jurkat cells after 72 hrs by Cell-Titer Glo assay. The class given is functional, cell-based.
The subject of a further assay is Raji. The assay can be described thus: Cytotoxicity against human Raji cells after 72 hrs by Cell-Titer Glo assay. The class given is functional, cell-based.
The test system of another assay is HepG2. The assay can be described thus: Cytotoxicity against human HepG2 cells after 72 hrs by Cell-Titer Glo assay. It counts as functional, cell-based. As to conditions: HepG2, 72 h.
Assay [2] is described as follows: Cytotoxicity against human SEM cells after 72 hrs by Cell-Titer Glo assay. The class given is functional, cell-based.
In a further assay the test system is HEK293. The experiment in a line: Cytotoxicity against HEK293 cells after 72 hrs by Cell-Titer Glo assay. It counts as cell-based. The following applies: Homo sapiens, HEK293, 72 h.

This passage reports EC50 results from ChEMBL document CHEMBL3779792, “Anti-proliferative evaluation of monoterpene derivatives against leukemia” (Eur J Med Chem, 2016).

As usually defined, the EC50 is the concentration needed to bring the measured effect to its halfway point.

Take `COc1ccc(/C=C/[C@@](C)(/C=C/c2ccc(O)c(/C=C/C(C)=O)c2)CCC=C(C)C)cc1`: the EC50 was > 43.5 µM in assay [1]; 12.3 µM with BJ; > 49 µM with Jurkat; > 26 µM in the assay on Raji; > 52.1 µM in the assay with HepG2; 8.67 µM in assay [2]. This compound registered a 50% effective concentration (EC50) in the assay with HEK293 of 14.6 µM.
`C=C[C@@](C)(/C=C/c1ccc(O)cc1)CC/C=C(\C)CO`: the EC50 in assay [1] is > 43.5 µM; with BJ it was > 36.6 µM; in the assay with Jurkat, > 49 µM; in the assay with Raji it was > 26 µM; with HepG2, > 52.1 µM; in assay [2], > 36.6 µM. The EC50 in the assay with HEK293 is > 36.6 µM.
With `CCOC(=O)/C(C)=C/c1cc(/C=C/[C@](C)(/C=C/c2ccc(OC)cc2)CCC=C(C)C)ccc1O`, the EC50 in assay [1] was > 43.5 µM; in the assay on BJ, > 36.6 µM; in the assay with Jurkat, > 49 µM; in the assay on Raji, > 26 µM; in the assay with HepG2, > 52.1 µM; in assay [2], > 36.6 µM. For the same compound, the EC50 in the assay with HEK293 is > 36.6 µM.
Take `C=C[C@@](C)(/C=C/c1ccc(O)cc1)CC/C=C/C(=O)OCC`: the EC50 in assay [1] was > 43.5 µM; in the assay on BJ it was > 36.6 µM; in the assay on Jurkat it was > 49 µM; in the assay on Raji, > 26 µM; with HepG2 it was > 52.1 µM; in assay [2], > 36.6 µM. In the assay with HEK293, the EC50 was > 36.6 µM.
As for `CCOC(=O)/C=C/c1cc(/C=C/[C@](C)(/C=C/c2ccc(OC)cc2)CCC=C(C)C)ccc1O`, the half-maximal effective concentration (EC50) in assay [1] is > 43.5 µM; in the assay with BJ it was > 36.6 µM; in the assay on Jurkat, > 49 µM; with Raji, > 26 µM; in the assay on HepG2, > 52.1 µM; in assay [2], > 36.6 µM. Moreover, in the assay with HEK293, the EC50 is > 36.6 µM.
In the case of `C=C[C@@](C)(/C=C/c1ccc(O)cc1)CC/C=C/C#N`, the 50% effective concentration (EC50) was > 43.5 µM in assay [1]; > 36.6 µM with BJ; > 49 µM in the assay on Jurkat; > 26 µM with Raji; > 52.1 µM in the assay with HepG2; > 36.6 µM in assay [2]. In the assay on HEK293, the EC50 is > 36.6 µM.
In the case of `C=C[C@@](C)(/C=C/c1ccc(OS(=O)(=O)C(F)(F)F)cc1)CCC=C(C)C`, the EC50 in assay [1] was > 43.5 µM; in the assay on BJ, > 36.6 µM; in the assay on Jurkat, > 49 µM; in the assay with Raji, > 26 µM; in the assay with HepG2 it was > 52.1 µM; in assay [2], > 36.6 µM. The EC50 in the assay with HEK293 is > 36.6 µM.
On to `C=C[C@@](C)(/C=C/c1ccc(O)c(/C=C(\C)C(=O)OCC)c1)CCC=C(C)C`, for which the concentration giving a half-maximal response (EC50) in assay [1] is > 7.51 µM; in the assay on BJ, > 36.6 µM; with Jurkat, > 49 µM; in the assay with Raji, > 26 µM; in the assay with HepG2 it was > 52.1 µM; in assay [2], > 36.6 µM. The 50% effective concentration (EC50) with HEK293 is > 36.6 µM.
For the compound `C=C[C@@](C)(/C=C/c1ccc(O)cc1)CCC1OC1(C)C` (stereo partly specified), the EC50 in assay [1] was > 43.5 µM; in the assay with BJ, > 36.6 µM; in the assay on Jurkat, > 49 µM; with Raji, > 22.6 µM; in the assay on HepG2, > 52.1 µM; in assay [2], > 36.6 µM. In addition, in the assay with HEK293, the EC50 is > 36.6 µM.
Consider `C=C[C@@](C)(/C=C/c1ccc(O)cc1)CC/C=C(\C)C(=O)OCC`, for which the concentration giving a half-maximal response (EC50) is > 43.5 µM in assay [1]; > 36.6 µM with BJ; > 49 µM in the assay with Jurkat; > 26 µM in the assay with Raji; > 52.1 µM in the assay on HepG2; > 36.6 µM in assay [2]. The EC50 with HEK293 was > 36.6 µM.
For the compound `COc1ccc(/C=C/[C@@](C)(/C=C/c2ccc(O)c(/C=C/C(=O)OCc3ccccc3)c2)CCC=C(C)C)cc1`, the EC50 in assay [1] is > 43.5 µM; in the assay on BJ it was > 36.6 µM; in the assay on Jurkat, > 49 µM; with Raji, > 26 µM; in the assay with HepG2, > 26 µM; in assay [2], > 36.6 µM. In addition, in the assay on HEK293, the concentration for a half-maximal effect (EC50) was > 36.6 µM.
Consider `COc1ccc(/C=C/[C@@](C)(/C=C/c2ccc(O)c(/C=C/C(=O)c3ccccc3)c2)CCC=C(C)C)cc1`, for which the EC50 in assay [1] was > 43.5 µM; in the assay on BJ, > 36.6 µM; in the assay with Jurkat, > 49 µM; with Raji, > 26 µM; in the assay with HepG2, > 52.1 µM; in assay [2], 30 µM. In the assay on HEK293, the EC50 was > 36.6 µM.
Regarding `C=C[C@@](C)(/C=C/c1ccc(OC)cc1)CCC=C(C)C`, the EC50 in assay [1] is > 43.5 µM; in the assay with BJ, > 36.6 µM; with Jurkat, > 49 µM; in the assay with Raji, > 26 µM; in the assay on HepG2, > 52.1 µM; in assay [2], > 36.6 µM. Besides, the EC50 in the assay on HEK293 is > 36.6 µM.
For the compound `CCOc1ccc(/C=C/[C@@](C)(/C=C/c2ccc(O)cc2)CCC=C(C)C)cc1`, the EC50 in assay [1] was > 43.5 µM; with BJ, > 36.6 µM; in the assay with Jurkat, > 49 µM; in the assay with Raji, > 26 µM; with HepG2, > 52.1 µM; in assay [2], > 36.6 µM. The EC50 in the assay on HEK293 is > 36.6 µM.
With `C=C[C@@](C)(/C=C/c1ccc(O)c(/C=C/C(=O)OCc2ccccc2)c1)CCC=C(C)C`, the EC50 in assay [1] was > 43.5 µM; in the assay on BJ, > 36.6 µM; in the assay on Jurkat it was > 49 µM; with Raji, > 26 µM; with HepG2 it was > 52.1 µM; in assay [2], > 36.6 µM. In the assay on HEK293, the EC50 was > 36.6 µM.
Regarding `C=C[C@@](C)(/C=C/c1ccc(O)c(/C=C/C(=O)NCc2ccc(C(F)(F)F)cc2)c1)CCC=C(C)C`, the EC50 in assay [1] was > 43.5 µM; in the assay on BJ it was > 36.6 µM; in the assay on Jurkat, > 49 µM; in the assay on Raji, > 26 µM; with HepG2 it was > 52.1 µM; in assay [2], > 36.6 µM. In addition, the EC50 in the assay with HEK293 was > 36.6 µM.
As to `C=C[C@@](C)(/C=C/c1ccc(O)cc1)CCC(O)C(C)(C)O` (stereo partly specified), the EC50 was > 43.5 µM in assay [1]; > 36.6 µM in the assay on BJ; > 49 µM with Jurkat; > 26 µM in the assay on Raji; > 52.1 µM in the assay on HepG2; > 36.6 µM in assay [2]. For the same compound, in the assay with HEK293, the 50% effective concentration (EC50) was > 36.6 µM.
Turning to `COc1ccc(/C=C/[C@@](C)(/C=C/c2ccc(O)c(/C=C/C#N)c2)CCC=C(C)C)cc1`, the EC50 in assay [1] was 16.5 µM; with BJ, > 23.7 µM; in the assay on Jurkat it was > 49 µM; in the assay with Raji, > 26 µM; in the assay on HepG2, > 26 µM; in assay [2] it was 4.54 µM. Further, the EC50 in the assay with HEK293 was > 36.6 µM.
For `C=C[C@@](C)(/C=C/c1ccc(O)cc1)CC/C=C(C)/C=N/N`, the EC50 in assay [1] was > 43.5 µM; in the assay on BJ, > 36.6 µM; with Jurkat, > 49 µM; in the assay on Raji, > 26 µM; in the assay on HepG2 it was > 52.1 µM; in assay [2], > 36.6 µM. The EC50 with HEK293 was > 36.6 µM.
On to `C=C[C@@](C)(/C=C/c1ccc(OS(=O)(=O)c2ccc(C)cc2)cc1)CCC=C(C)C`, for which the EC50 in assay [1] was > 43.5 µM; in the assay with BJ, > 36.6 µM; in the assay on Jurkat, > 49 µM; in the assay with Raji, > 26 µM; with HepG2, > 52.1 µM; in assay [2] it was > 43.5 µM. For the same compound, the EC50 in the assay on HEK293 was > 36.6 µM.
Turning to `C=C[C@@](C)(/C=C/c1ccc(O)cc1)CC/C=C(C)/C=C/C(=O)OCC`, the EC50 in assay [1] was 0.815 µM; in the assay on BJ it was > 36.6 µM; in the assay on Jurkat it was > 49 µM; in the assay with Raji it was > 26 µM; in the assay on HepG2, > 52.1 µM; in assay [2], > 36.6 µM. Also, the EC50 in the assay with HEK293 is > 36.6 µM.
`C=C[C@@](C)(/C=C/c1ccc(O)cc1)CC/C=C(\C)C=O`: the EC50 in assay [1] is 12.6 µM; with BJ it was > 36.6 µM; in the assay on Jurkat, > 49 µM; in the assay with Raji, > 26 µM; in the assay with HepG2, > 52.1 µM; in assay [2], > 36.6 µM. For the same compound, the EC50 in the assay with HEK293 was > 36.6 µM.
`C=C[C@@](C)(/C=C/c1ccc(O)cc1)CC/C=C/C(=O)OCc1ccccc1`: the EC50 in assay [1] was > 43.5 µM; in the assay on BJ, > 36.6 µM; in the assay with Jurkat, > 49 µM; in the assay on Raji it was > 26 µM; with HepG2, > 52.1 µM; in assay [2] it was > 36.6 µM. Also, the EC50 in the assay on HEK293 was > 36.6 µM.
As for `C=C[C@@](C)(/C=C/c1ccc(O)c(/C=C/C(=O)O)c1)CCC=C(C)C`, the EC50 in assay [1] is > 43.5 µM; in the assay on BJ, > 36.6 µM; with Jurkat it was > 49 µM; with Raji, > 26 µM; in the assay with HepG2, > 52.1 µM; in assay [2], > 36.6 µM. For the same compound, the EC50 with HEK293 was > 36.6 µM.
`C=C[C@@](C)(/C=C/c1ccc(O)cc1)CCC=C(C)C` [BAKUCHIOL]: the EC50 was 38 µM in assay [1]; > 36.6 µM with BJ; > 49 µM in the assay with Jurkat; > 26 µM in the assay on Raji; > 52.1 µM in the assay on HepG2; 15.3 µM in assay [2]. Also, the EC50 in the assay with HEK293 is > 36.6 µM.
Consider `C=C[C@@](C)(/C=C/c1ccc(O)c(/C=C/C(=O)OCC)c1)CCC=C(C)C`, for which the EC50 in assay [1] was 20.9 µM; in the assay with BJ, > 36.6 µM; in the assay on Jurkat it was > 49 µM; with Raji it was > 26 µM; in the assay on HepG2, > 52.1 µM; in assay [2] it was > 36.6 µM. Moreover, the EC50 in the assay on HEK293 was > 36.6 µM.
For `C=C[C@@](C)(/C=C/c1ccc(O)c(/C=C/c2ccc(Cl)cc2)c1)CCC=C(C)C`, the EC50 in assay [1] was > 43.5 µM; with BJ, > 36.6 µM; in the assay with Jurkat, > 49 µM; in the assay on Raji, > 26 µM; in the assay with HepG2, > 52.1 µM; in assay [2], > 36.6 µM. Moreover, the concentration giving a half-maximal response (EC50) in the assay on HEK293 was > 36.6 µM.
Turning to `C=C[C@@](C)(/C=C/c1ccc(O)c(/C=C/C(N)=O)c1)CCC=C(C)C`, the 50% effective concentration (EC50) in assay [1] was > 43.5 µM; with BJ, > 36.6 µM; in the assay with Jurkat, > 49 µM; in the assay on Raji, > 26 µM; in the assay with HepG2, > 52.1 µM; in assay [2] it was > 36.6 µM. In addition, in the assay with HEK293, the EC50 is > 36.6 µM.
